Experimental data taken from patent publication US20250179047A1, “5-[7-(3,4-DIHYDRO-1H-ISOQUINOLINE-2-CARBONYL)-1,2,3,4 TETRAHYDROISOQUINOLIN-6-YL]-1H-PYRROLE-3-CARBOXAMIDE DERIVATIVES, PHARMACEUTICAL COMPOSITIONS CONTAINING THEM AND THEIR USES AS PRO-APOPTOTIC AGENTS” (LES LABORATOIRES SERVIER, priority 2022, published 2025).

What was measured:
KMS-12-PE Bcl-2 WT = assay: In vitro cytotoxicity CellTiter-Glo 48 h, KMS-12-PE Bcl-2 WT; format: cell-based; conditions: Homo sapiens, KMS-12-PE, C50 = concentration needed to reach 50% of the cellular viability
How it was run: (§1)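 Potency is expressed as C50, the compound concentration at which viability of engineered KMS-12-PE cells (Bcl-2 wild type or G101V) falls to 50%, determined from CellTiter-Glo luminescence after 48 h of treatment over 11 concentrations.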

KMS-12-PE Bcl-2 G101V = assay: In vitro cytotoxicity CellTiter-Glo 48 h, KMS-12-PE Bcl-2 G101V; format: cell-based; conditions: for Ratio (G101V/WT): C50 KMS-12-PE Bcl-2 G101V over C50 KMS-12-PE Bcl-2 WT; for IC50: Homo sapiens, KMS-12-PE, 48 h, CellTiter-Glo, C50 = concentration needed to reach 50% of the cellular viability
How it was run: as §1

BCL2 WT = BCL2 WT (Homo sapiens (Human), UniProt P10415); assay: TR-FRET competitive binding assay, BCL2 WT; conditions: Ki determined from IC50, read-out: TR_FRET EKI_Bcl2 WT
How it was run: (§2)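 Competitive TR-FRET displacement of fluorescein-PUMA peptide (2 or 20 nM) from 0.5 nM terbium-labelled N-terminal Halo-fusion BCL2 (1-207, wild type or mutant) or BCLXL (2-196), expressed in E. coli. Buffer 50 mM Hepes pH 7.5, 150 mM NaCl, 5% DMSO; 2 h at 23°C. 520/495 nm ratio fitted over 11 points for IC50, converted to Ki.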

BCLXL WT = BCLXL WT (Homo sapiens (Human), UniProt Q07817); assay: TR-FRET competitive binding assay, BCLXL WT; conditions: for Ki: BCLXL WT, Ki determined from IC50, read-out: TR_FRET EKI BclxL; for TR_FRET EKI BCLxL/WT selectivty ratio: ratio Ki BCLxL / Ki BCL2 WT
How it was run: as §2

BCL2 G101V [1] = assay: TR-FRET competitive binding assay, BCL2 G101V; design: species or system human; conditions: ratio Ki BCL2 G101V / Ki BCL2 WT
How it was run: as §2

BCL2 G101V [2] = molecular target: BCL2 G101V (Homo sapiens, UniProt P10415, G101V); assay: TR-FRET competitive binding assay, BCL2 G101V; conditions: BCL2 G101V; Ki determined from IC50; read-out: TR_FRET EKI_Bcl2 G101V
How it was run: as §2

BCL2 D103Y = BCL2 D103Y (Homo sapiens, UniProt P10415, D103Y); assay: TR-FRET competitive binding assay, BCL2 D103Y; conditions: Ki determined from IC50, read-out: TR_FRET EKI_Bcl2 D103Y
How it was run: as §2

Sequence of BCLXL WT (Q07817 other isoform, or with tags, fused parts or gaps): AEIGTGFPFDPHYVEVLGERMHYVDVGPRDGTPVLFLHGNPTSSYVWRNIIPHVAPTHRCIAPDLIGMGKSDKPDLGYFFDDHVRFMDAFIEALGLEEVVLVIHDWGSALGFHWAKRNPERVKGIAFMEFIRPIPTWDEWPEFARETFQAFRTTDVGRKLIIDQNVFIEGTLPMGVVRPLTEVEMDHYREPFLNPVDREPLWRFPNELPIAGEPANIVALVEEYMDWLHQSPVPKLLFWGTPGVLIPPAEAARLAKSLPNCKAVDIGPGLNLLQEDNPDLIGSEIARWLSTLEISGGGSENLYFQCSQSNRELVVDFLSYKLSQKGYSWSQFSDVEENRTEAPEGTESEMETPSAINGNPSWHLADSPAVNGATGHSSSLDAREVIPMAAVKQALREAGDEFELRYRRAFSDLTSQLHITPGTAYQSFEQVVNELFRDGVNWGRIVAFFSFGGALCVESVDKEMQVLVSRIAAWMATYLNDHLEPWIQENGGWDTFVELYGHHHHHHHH

Row | SMILES | IC50 (KMS-12-PE Bcl-2 WT) | Ratio (G101V/WT) (KMS-12-PE Bcl-2 G101V) | IC50 (KMS-12-PE Bcl-2 G101V) | Ki (BCL2 WT) | Ki (BCLXL WT) | TR_FRET EKI BCLxL/WT selectivty ratio (BCLXL WT) | TR_FRET EKI G101V/WT selectivty ratio (BCL2 G101V [1]) | Ki (BCL2 G101V [2]) | Ki (BCL2 D103Y)
1 | Cc1c(N(C(=O)c2cc(-c3cc4c(cc3C(=O)N3Cc5ccccc5C[C@H]3CN3CCCC3)CN(C(=O)Cc3ccc(OCCN5CCOCC5)cc3F)CC4)n(C)c2C)c2ccc(O)cc2)cc(C#N)n1C [Example 100, N-(5-cyano-1,2-dimethylpyrrol-3-yl)-5-[2-(2-{2-fluoro-4-[2-(morpholin-4-yl)ethoxy]phenyl}acetyl)-7-{[(3S)-3-(pyrrolidin-1-ylmethyl)-3,4-dihydro-1H-isoquinolin-2-yl]carbonyl}-3,4-dihydro-1H-isoquinolin-6-yl]-N-(4-hydroxyphenyl)-1,2-dimethylpyrrole-3-carboxamide] | 0.0156 µM | 4.23 | 0.066 µM | 0.02 nM | 2.3 nM | 127.8 | 8.9 | 0.2 nM | 0.06 nM
2 | Cc1c(N(C(=O)c2cc(-c3cc4c(cc3C(=O)N3Cc5ccccc5C[C@H]3CN3CCCCC3)CN(C(=O)Cc3ccc(OCCN(C)CC5COC5)cc3F)CC4)n(C)c2C)c2ccc(O)cc2)cc(C#N)n1C [Example 103, N-(5-cyano-1,2-dimethyl-1H-pyrrol-3-yl)-5-(2-{2-[2-fluoro-4-(2-{methyl[(oxetan-3-yl)methyl]amino}ethoxy)phenyl]acetyl}-7-[(3S)-3-[(piperidin-1-yl)methyl]-1,2,3,4-tetrahydroisoquinoline-2-carbonyl]-1,2,3,4-tetrahydroisoquinolin-6-yl)-N-(4-hydroxyphenyl)-1,2-dimethyl-1H-pyrrole-3-carboxamide] | 0.006 µM | 6.66 | 0.0399 µM | 0.03 nM | 1.1 nM | 35.5 | 6.5 | 0.2 nM | 0.09 nM
3 | Cc1c(N(C(=O)c2cc(-c3cc4c(cc3C(=O)N3Cc5ccccc5C[C@H]3CN3CCCCC3)CN(C(=O)Cc3ccc(OCCN(C)CC5COC5)cc3)CC4)n(C)c2C)c2ccc(O)cc2)cc(C#N)n1C [Example 104, N-(5-cyano-1,2-dimethyl-1H-pyrrol-3-yl)-N-(4-hydroxyphenyl)-1,2-dimethyl-5-(2-{2-[4-(2-{methyl[(oxetan-3-yl)methyl]amino}ethoxy)phenyl]acetyl}-7-[(3S)-3-[(piperidin-1-yl)methyl]-1,2,3,4-tetrahydroisoquinoline-2-carbonyl]-1,2,3,4-tetrahydroisoquinolin-6-yl)-1H-pyrrole-3-carboxamide] | 0.0166 µM | 5.38 | 0.0893 µM | 0.07 nM | 2.6 nM | 40.0 | 5.8 | 0.4 nM | 0.17 nM
4 | Cc1c(N(C(=O)c2cc(-c3cc4c(cc3C(=O)N3Cc5ccccc5C[C@H]3CN3CCCCC3)CN(C(=O)Cc3ccc(OCCN(C)C5COC5)cc3)CC4)n(C)c2C)c2ccc(O)cc2)cc(C#N)n1C [Example 106, N-(5-cyano-1,2-dimethyl-1H-pyrrol-3-yl)-N-(4-hydroxyphenyl)-1,2-dimethyl-5-{2-[2-(4-{2-[methyl(oxetan-3-yl)amino]ethoxy}phenyl)acetyl]-7-[(3S)-3-[(piperidin-1-yl)methyl]-1,2,3,4-tetrahydroisoquinoline-2-carbonyl]-1,2,3,4-tetrahydroisoquinolin-6-yl}-1H-pyrrole-3-carboxamide] | 0.0107 µM | 4.53 | 0.0485 µM | 0.05 nM | 1.8 nM | 36.0 | 6.2 | 0.3 nM | 0.19 nM
